Laboratory results as given in ChEMBL document CHEMBL1201861, “Genomics of Drug Sensitity in Cancer screening data, Wellcome Trust Sanger Institute”.

What was measured:
COR-L105 = test: cells; type: functional, cell-based; details: Homo sapiens
Description: SANGER: Inhibition of human COR-L105 cell growth in a cell viability assay.

CP66-MEL = test: cells; type: functional, cell-based; details: Homo sapiens;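 further: growth inhibition of CP66-MEL cells determined in a cell viability assay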
Description: SANGER: Inhibition of human CP66-MEL cell growth in a cell viability assay.

Ca9-22 = test: cells; type: functional, cell-based; details: Homo sapiens;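 further: growth inhibition of Ca9-22 cells, read out with a cell viability assay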
Description: SANGER: Inhibition of human Ca9-22 cell growth in a cell viability assay.

DMS-273 = test: cells; type: functional, cell-based; details: Homo sapiens
Description: SANGER: Inhibition of human DMS-273 cell growth in a cell viability assay.

DOK = test: cells; type: functional, cell-based; details: Homo sapiens;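 further: cell viability assay read-out, values reflect inhibition of cell growth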
Description: SANGER: Inhibition of human DOK cell growth in a cell viability assay.

Detroit 562 = test: cells; type: functional, cell-based; details: Homo sapiens;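 further: growth inhibition of human Detroit 562 cells, read out by a cell viability assay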
Description: SANGER: Inhibition of human Detroit562 cell growth in a cell viability assay.

ECC4 = test: cells; type: functional, cell-based, Homo sapiens; details: Homo sapiens, ECC4;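 further: growth inhibition of ECC4 cells, read out with a cell viability assay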
Description: SANGER: Inhibition of human ECC4 cell growth in a cell viability assay.

EW-24 = test: cells; type: functional, cell-based, Homo sapiens; details: Homo sapiens, EW-24;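 further: human EW-24 cancer cell line, growth inhibition read out via a cell viability assay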
Description: SANGER: Inhibition of human EW-24 cell growth in a cell viability assay.

HCC1395 = test: cells; type: functional, cell-based; details: Homo sapiens;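 further: growth inhibition of HCC1395 cells, read out by a cell viability assay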
Description: SANGER: Inhibition of human HCC1395 cell growth in a cell viability assay.

HCC 2998 = test: cells; type: functional, cell-based; details: Homo sapiens;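 further: growth inhibition of human HCC2998 cells, measured with a cell viability read-out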
Description: SANGER: Inhibition of human HCC2998 cell growth in a cell viability assay.

HT-29 = test: cells; type: functional, cell-based; details: Homo sapiens;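 further: growth inhibition of human HT-29 cells, read out by a cell viability assay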
Description: SANGER: Inhibition of human HT-29 cell growth in a cell viability assay.

HuP-T3 = test: cells; type: functional, cell-based; details: Homo sapiens;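 further: HuP-T3 cell growth inhibition, read out with a cell viability assay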
Description: SANGER: Inhibition of human HuP-T3 cell growth in a cell viability assay.

J82 = test: cells; type: functional, cell-based; details: Homo sapiens;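 further: growth inhibition of J82 cells, read out with a cell viability assay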
Description: SANGER: Inhibition of human J82 cell growth in a cell viability assay.

JIYOYE = test: cells; type: functional, cell-based, Homo sapiens; details: Homo sapiens, JIYOYE
Description: SANGER: Inhibition of human JiyoyeP-2003 cell growth in a cell viability assay.

LB647-SCLC = test: cells; type: functional, cell-based, Homo sapiens; details: Homo sapiens, LB647-SCLC;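 further: cell growth inhibition, read out by a viability assay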
Description: SANGER: Inhibition of human LB647-SCLC cell growth in a cell viability assay.

MC-IXC = test: cells; type: functional, cell-based; details: Homo sapiens;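 further: growth inhibition of MC-IXC cells, read out with a cell viability assay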
Description: SANGER: Inhibition of human MC-IXC cell growth in a cell viability assay.

MDA-MB-157 = test: cells; type: functional, cell-based; details: Homo sapiens
Description: SANGER: Inhibition of human MDA-MB-157 cell growth in a cell viability assay.

MDA-MB-415 = test: cells; type: functional, cell-based; details: Homo sapiens
ME-180 = test: cells; type: functional, cell-based; details: Homo sapiens;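 further: cell viability assay measuring growth inhibition of ME-180 cells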
Description: SANGER: Inhibition of human ME-180 cell growth in a cell viability assay.

NB1 = test: cells; type: functional, cell-based, Homo sapiens; details: Homo sapiens, NB1;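 further: reduction of NB1 cell proliferation, read out with a viability assay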
Description: SANGER: Inhibition of human NB1 cell growth in a cell viability assay.

NCI-H1694 = test: cells; type: functional, cell-based, Homo sapiens; details: Homo sapiens, NCI-H1694;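 further: cell viability assay measuring inhibition of growth in human NCI-H1694 cells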
Description: SANGER: Inhibition of human NCI-H1694 cell growth in a cell viability assay.

NCI-H1963 = test: cells; type: functional, cell-based, Homo sapiens; details: Homo sapiens, NCI-H1963;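 further: cell growth inhibition of the human line, determined with a cell viability assay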
Description: SANGER: Inhibition of human NCI-H1963 cell growth in a cell viability assay.

NCI-H2009 = test: cells; type: functional, cell-based; details: Homo sapiens;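 further: cell viability assay measuring inhibition of NCI-H2009 cell growth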
Description: SANGER: Inhibition of human NCI-H2009 cell growth in a cell viability assay.

NCI-H2347 = test: cells; type: functional, cell-based; details: Homo sapiens;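 further: growth inhibition of the cell line, read out with a cell viability assay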
Description: SANGER: Inhibition of human NCI-H2347 cell growth in a cell viability assay.

NCI-H345 = test: cells; type: functional, cell-based, Homo sapiens; details: Homo sapiens, NCI-H345;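 further: growth inhibition of NCI-H345 cells measured with a cell viability assay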
Description: SANGER: Inhibition of human NCI-H345 cell growth in a cell viability assay.

NCI-H650 = test: cells; type: functional, cell-based; details: Homo sapiens;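 further: growth inhibition of NCI-H650 cells, read out by a viability assay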
Description: SANGER: Inhibition of human NCI-H650 cell growth in a cell viability assay.

NCI-H810 = test: cells; type: functional, cell-based; details: Homo sapiens;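 further: IC50 reflects inhibition of cancer cell line growth, read out with a cell viability assay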
Description: SANGER: Inhibition of human NCI-H810 cell growth in a cell viability assay.

NCI-H889 = test: cells; type: functional, cell-based, Homo sapiens; details: Homo sapiens, NCI-H889;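 further: cell growth inhibition of the cell line, read out with a viability assay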
Description: SANGER: Inhibition of human NCI-H889 cell growth in a cell viability assay.

SNU-16 = test: cells; type: functional, cell-based, Homo sapiens; details: Homo sapiens, SNU-16;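 further: growth inhibition of human SNU-16 cells, determined with a cell viability readout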
Description: SANGER: Inhibition of human NCI-SNU-16 cell growth in a cell viability assay.

PA-1 = test: cells; type: functional, cell-based; details: Homo sapiens;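 further: IC50 for suppression of PA-1 cell proliferation, determined with a cell viability read-out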
Description: SANGER: Inhibition of human PA-1 cell growth in a cell viability assay.

Panc1005 = test: cells; type: functional, cell-based; details: Homo sapiens;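 further: growth inhibition of human PANC-10-05 cells, measured by a cell viability assay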
Description: SANGER: Inhibition of human PANC-10-05 cell growth in a cell viability assay.

RL = test: cells; type: functional, cell-based, Homo sapiens; details: Homo sapiens, RL
Description: SANGER: Inhibition of human RL cell growth in a cell viability assay.

Raji = test: cells; type: functional, cell-based, Homo sapiens; details: Homo sapiens, Raji;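 further: cell viability assay measuring inhibition of Raji cell growth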
Description: SANGER: Inhibition of human Raji cell growth in a cell viability assay.

S-117 = test: cells; type: functional, cell-based; details: Homo sapiens
Description: SANGER: Inhibition of human S-117 cell growth in a cell viability assay.

SAS = test: cells; type: functional, cell-based; details: Homo sapiens;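 further: growth inhibition of SAS cells, read out with a cell viability assay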
Description: SANGER: Inhibition of human SAS cell growth in a cell viability assay.

SF-295 = test: cells; type: functional, cell-based; details: Homo sapiens;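 further: growth inhibition of SF-295 cells, read out with a cell viability assay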
Description: SANGER: Inhibition of human SF295 cell growth in a cell viability assay.

SK-N-AS = test: cells; type: functional, cell-based; details: Homo sapiens;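 further: growth inhibition of human SK-N-AS cells, measured with a cell viability assay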
Description: SANGER: Inhibition of human SK-N-AS cell growth in a cell viability assay.

ST486 = test: SANGER: Inhibition of human ST486 cell growth in a cell viability assay.; type: functional, cell-based; details: Homo sapiens, ST486
SW1088 = test: cells; type: functional, cell-based; details: Homo sapiens;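 further: growth inhibition of human SW1088 cells, read out by a cell viability assay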
Description: SANGER: Inhibition of human SW1088 cell growth in a cell viability assay.

SW1990 = test: cells; type: functional, cell-based; details: Homo sapiens
Description: SANGER: Inhibition of human SW1990 cell growth in a cell viability assay.

SW837 = test: cells; type: functional, cell-based; details: Homo sapiens;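 further: growth inhibition of SW837 cells, determined with a cell viability assay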
Description: SANGER: Inhibition of human SW837 cell growth in a cell viability assay.

TALL-1 = test: cells; type: functional, cell-based, Homo sapiens; details: Homo sapiens, TALL-1;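 further: growth inhibition of cultured human TALL-1 cells, read out by a cell viability assay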
Description: SANGER: Inhibition of human TALL-1 cell growth in a cell viability assay.

5637 = test: cells; type: functional, cell-based; details: Homo sapiens
Description: SANGER: Inhibition of human 5637 cell growth in a cell viability assay.

639-V = test: cells; type: functional, cell-based; details: Homo sapiens;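 further: growth inhibition of 639-V cells, read out with a cell viability assay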
Description: SANGER: Inhibition of human 639-V cell growth in a cell viability assay.

A 172 = test: cells; type: functional, cell-based; details: Homo sapiens;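 further: growth inhibition of A172 cells, measured with a cell viability readout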
Description: SANGER: Inhibition of human A172 cell growth in a cell viability assay.

A2780 = test: cells; type: functional, cell-based; details: Homo sapiens;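 further: growth inhibition of A2780 cells, read out with a cell viability assay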
Description: SANGER: Inhibition of human A2780 cell growth in a cell viability assay.

ABC-1 = test: cells; type: functional, cell-based; details: Homo sapiens;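 further: growth inhibition of human ABC-1 cells, read out by a cell viability assay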
Description: SANGER: Inhibition of human ABC-1 cell growth in a cell viability assay.

ACHN = test: cells; type: functional, cell-based; details: Homo sapiens;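 further: cell viability read-out used to gauge how strongly growth of human ACHN cells is suppressed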
Description: SANGER: Inhibition of human ACHN cell growth in a cell viability assay.

ARH-77 = test: cells; type: functional, cell-based, Homo sapiens; details: Homo sapiens, ARH-77;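 further: growth inhibition of ARH-77 cells, read out by a cell viability assay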
Description: SANGER: Inhibition of human ARH-77 cell growth in a cell viability assay.

CAL-148 = test: cells; type: functional, cell-based, Homo sapiens; details: Homo sapiens, CAL-148
Description: SANGER: Inhibition of human CAL-148 cell growth in a cell viability assay.

CAL-27 = test: cells; type: functional, cell-based; details: Homo sapiens;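 further: Viability-based readout, IC50 reflecting inhibition of CAL-27 cell growth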
Description: SANGER: Inhibition of human CAL-27 cell growth in a cell viability assay.

TE-441-T = test: cells; type: functional, cell-based, Homo sapiens; details: Homo sapiens, TE-441-T
Description: SANGER: Inhibition of human TE-441-T cell growth in a cell viability assay.

UMUC3 = test: cells; type: functional, cell-based; details: Homo sapiens;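 further: growth inhibition of human UM-UC-3 cells, read out with a cell viability assay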
Description: SANGER: Inhibition of human UM-UC-3 cell growth in a cell viability assay.

VMRC-RCZ = test: cells; type: functional, cell-based; details: Homo sapiens
Description: SANGER: Inhibition of human VMRC-RCZ cell growth in a cell viability assay.

YKG-1 = test: cells; type: functional, cell-based; details: Homo sapiens;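 further: cell growth inhibition, read out with a viability assay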
Description: SANGER: Inhibition of human YKG-1 cell growth in a cell viability assay.

CESS = test: SANGER: Inhibition of human CESS cell growth in a cell viability assay.; type: functional, cell-based; details: Homo sapiens, CESS

Structure (SMILES): COc1ccc(-c2cc3nccn3c(Nc3ncccc3C(N)=O)n2)cc1OC
- IC50 (COR-L105): 1.14 µM
- IC50 (CP66-MEL): > 8 µM
- IC50 (Ca9-22): > 8 µM
- IC50 (DMS-273): 6.61 µM
- IC50 (DOK): > 8 µM
- IC50 (Detroit 562): 3.88 µM
- IC50 (ECC4): > 8 µM
- IC50 (EW-24): > 8 µM
- IC50 (HCC1395): > 8 µM
- IC50 (HCC 2998): 5.55 µM
- IC50 (HT-29): 2.81 µM
- IC50 (HuP-T3): > 8 µM
- IC50 (J82): 1.51 µM
- IC50 (JIYOYE): 1.55 µM
- IC50 (LB647-SCLC): > 8 µM
- IC50 (MC-IXC): > 8 µM
- IC50 (MDA-MB-157): > 8 µM
- IC50 (MDA-MB-415): > 8 µM
- IC50 (ME-180): > 8 µM
- IC50 (NB1): 1.71 µM
- IC50 (NCI-H1694): > 8 µM
- IC50 (NCI-H1963): > 8 µM
- IC50 (NCI-H2009): > 8 µM
- IC50 (NCI-H2347): > 8 µM
- IC50 (NCI-H345): > 8 µM
- IC50 (NCI-H650): > 8 µM
- IC50 (NCI-H810): 4.44 µM
- IC50 (NCI-H889): > 8 µM
- IC50 (SNU-16): > 8 µM
- IC50 (PA-1): 1.01 µM
- IC50 (Panc1005): 4.15 µM
- IC50 (RL): > 8 µM
- IC50 (Raji): 5.51 µM
- IC50 (S-117): > 8 µM
- IC50 (SAS): > 8 µM
- IC50 (SF-295): > 8 µM
- IC50 (SK-N-AS): > 8 µM
- IC50 (ST486): 0.576 µM
- IC50 (SW1088): > 8 µM
- IC50 (SW1990): > 8 µM
- IC50 (SW837): 3.54 µM
- IC50 (TALL-1): > 8 µM
- IC50 5637: > 8 µM
- IC50 (639-V): 1.43 µM
- IC50 (A 172): 2.22 µM
- IC50 (A2780): 1.53 µM
- IC50 (ABC-1): > 8 µM
- IC50 (ACHN): 1.38 µM
- IC50 (ARH-77): 3.06 µM
- IC50 (CAL-148): > 8 µM
- IC50 (CAL-27): 4.59 µM
- IC50 (TE-441-T): 3.96 µM
- IC50 (UMUC3): 7.41 µM
- IC50 (VMRC-RCZ): 5.58 µM
- IC50 (YKG-1): 2.65 µM
- IC50 (CESS): 1.45 µM
